Data taken from US7932287B2, “Therapeutic compositions and uses” (ChemGenes Corporation, priority 2004, dated 2011).
Where two headings read alike, the source gives them in different places.

Columns and labels:
[1] = tested on: child who was afflicted with LINCL; test: Exogenous L-carnitine given to the LINCL child for over three years; format: in vivo, human
Protocol: (§1) Child had been taking the supplements/vitamins listed in Appendix B for about three years before the start of TML therapy. In addition, they had been taking clonazepam (5-(2-chlorophenyl)-1,3-dihydro7-nitro-2H-1,4-benzodiazepin-2-one) which is sold under the trade name Klonopin by F. Hoffmann-La Roche Ltd. (Basel, Switzerland) for control of constant Myoclonic seizures for about the same time according to the following daily dosage: (a) at waking: ½ of one 0.5 mg tablet, (b) Every four hours after waking, ¼ of one 0.5 mg tablet, (c) At bedtime: ½ of one 0.5 mg tablet. They also took one (1) 25 mg capsule of nitrofurantoin macrocrystals (sold under the name Macrodantin by Procter & Gamble Pharmaceuticals, Cincinnati Ohio) once per day.
In summary, L-carnitine plays a key and critical role in enhancing fat metabolism. Reports attest to the fact that L-carnitine works by transporting fatty acids to be burned for fuel, increasing both energy supply and lean muscle mass. […] This contrasts with the apparent need in Late Infantile Neuronal Ceroid Lipofuscinosis (LINCL-one form of Batten Disease) of the correct operation of the endogenous production of L-carnitine. […] This also was not observed by the parents of the child who was afflicted with LINCL (discussed later).

[2] = tested on: dogs with Batten Disease (Juvenile Neuronal Ceroid Lipofuscinosis); conditions: cited from earlier work
[3] = tested on: child diagnosed with Late Infantile Neuronal Ceroid Lipofuscinosis (LINCL); test: Blood work (standard clinical blood tests) before and after TML therapy; format: in vivo, human; parameters: Glutamine / Taurine / Carnitine, Total / Carnitine, Esthers / Alanine / Carbon Dioxide / BUN / Hgb / HCT / RDW / ABS Lymphocytes / Glycine: unit not given here
Protocol: as §1
(§2) “Baseline” blood work was done after an overnight fast on the morning of Nov. 19, 2003. Child received their usual supplements/vitamins, clonazepam, and macrodantin. TML, as synthesized in Example 1 was given to the patient (5 mg of TML per day for a […], ending Dec. 28, 2003). Between Dec. 28, 2003 and Jan. 24, 2004 we gave an alternating daily dose of 5 mg/day and 10 mg/day. On Jan. 24, 2004 and till the “new” blood work was done on Jan. 29, 2004, the patient received 10 mg/day by usually taking 5 mg of TML with breakfast and 5 mg of TML with dinner. They received 5 mg per dose during the duration of the experiment. In other words, they received TML once per day on days that they received 5 mg, and TML twice per day on days that they received 10 mg of TML. The TML was administered in powder form intermixed with their food.
The child's bloodwork results are in table 1, below and the empirical nature of the child's improvement is evidenced by the follow up blood results. These blood tests were standard clinical tests carried out at Children's Hospital of Pittsburgh.

[4] = tested on: child diagnosed with Late Infantile Neuronal Ceroid Lipofuscinosis (LINCL); test: Physical condition of the patient after 9 weeks of TML therapy (parents' and physicians' observations); format: in vivo, human
Protocol: as §1, §2
Child's General Physical Condition Before the Start of TML Therapy (Based on Parents' Observations):
(The Physical Appearance of the Patient After the Stated 9 Weeks of TML Therapy.)

[5] = tested on: child diagnosed with Late Infantile Neuronal Ceroid Lipofuscinosis (LINCL); test: as above; format: in vivo, human; conditions: TML 5 mg-30 mg per day after Jan. 29, 2004, through January 2005
L-carnitine biosynthesis [6] = conditions: rats; increased amount of the intermediate in the bloodstream; cited from earlier work
L-carnitine biosynthesis [7] = conditions: human infants & adults; increased amount of the intermediate in the bloodstream; cited from earlier work
[8] = exogenous carnitine, dogs with Juvenile Neuronal Ceroid Lipofuscinosis
[9] = Jan. 29, 2004, after TML, baseline high
[10] = Jan. 29, 2004, after TML, baseline normal

## C[N+](C)(C)C[C@H](O)CC(=O)[O-] [L-carnitine, L-b-hydroxy-g-n-trimethylaminobutyric acid]
[1]
  Metabolic changes or marked outward observations of their condition: without significant metabolic changes or marked outward observations of their condition
[2]; exogenous L-Carnitine to dogs with Batten Disease
  Need for endogenous production of L-carnitine: not ameliorated
[2]; [8]
  Function of the dogs: more functional
  Life span versus untreated dogs (lived longer): 10%

## C[N+](C)(C)CCCCC(N)C(=O)[O-] [TML, N-6-trimethyl-L-lysine]
[3]; Jan. 29, 2004, after 9 weeks of TML 5-10 mg/day in food, overnight fast, baseline Nov. 19, 2003: 14.4 (high)
  Hgb: 14
[3]; Jan. 29, 2004, after 9 weeks of TML 5-10 mg/day, baseline 2 (low), 6 is norm
  BUN: 5
[3]; Jan. 29, 2004, after 9 weeks of TML 5-10 mg/day, baseline 2.2 (low)
  ABS Lymphocytes: 2.5
[3]; Jan. 29, 2004, after 9 weeks of TML 5-10 mg/day, baseline 7 (normal)
  Carnitine, Esthers: 10
[3]; Jan. 29, 2004, after 9 weeks of TML 5-10 mg/day, baseline 11.5
  RDW: 12.3
[3]; Jan. 29, 2004, after 9 weeks of TML 5-10 mg/day, baseline 24 (high)
  Taurine: 19
[3]; Jan. 29, 2004, after 9 weeks of TML 5-10 mg/day, baseline 32 (high)
  Carbon Dioxide: 22
[3]; Jan. 29, 2004, after 9 weeks of TML 5-10 mg/day, baseline 40 (normal)
  Carnitine, Total: 43
[3]; Jan. 29, 2004, after 9 weeks of TML 5-10 mg/day, baseline 42 (high)
  HCT: 40.3
[3]; Jan. 29, 2004, after 9 weeks of TML 5-10 mg/day, baseline 50 (high)
  Glycine: 25
[3]; Jan. 29, 2004, after 9 weeks of TML 5-10 mg/day, baseline 60 (high), 40 is norm
  AST: 50
[3]; Jan. 29, 2004, after 9 weeks of TML 5-10 mg/day, baseline 87 (high)
  Alanine: 47
[3]; Jan. 29, 2004, after 9 weeks of TML 5-10 mg/day, baseline 99 (high)
  Glutamine: 70
[3]; Jan. 29, 2004, after 9 weeks of TML 5-10 mg/day, baseline 586 (high), 369 norm
  Platelets: 461
[3]; [9]
  Alanine, Clinical Range: normal
  Carbon Dioxide, Clinical Range: normal
  Glutamine, Clinical Range: normal
  Glycine, Clinical Range: normal
  HCT, Clinical Range: normal
  Hgb, Clinical Range: normal
  RDW, Clinical Range: normal
  Taurine, Clinical Range: normal
[3]; Jan. 29, 2004, after TML, baseline high, 40 is norm
  AST, Clinical Range: high
[3]; Jan. 29, 2004, after TML, baseline high, 369 norm
  Platelets, Clinical Range: high
[3]; Jan. 29, 2004, after TML, baseline low
  ABS Lymphocytes, Clinical Range: normal
[3]; Jan. 29, 2004, after TML, baseline low, 6 is norm
  BUN, Clinical Range: (low)
[3]; [10]
  Carnitine, Esthers, Clinical Range: normal
  Carnitine, Total, Clinical Range: normal
[3]; Jan. 29, 2004, after TML, baseline: alanine elevated, glutamine increased
  Elevation of serum amino acids (examining physician's comment): No significant elevation of serum Amino Acids
[4]; after 9 weeks of TML therapy
  Eye movement and pupillary response: more eye movement and even the emergence of “purposeful” eye movement and a faster pupillary response
  Hypertonicity of legs: still “hypertonic”
  Swallowing: very much improved, almost normal
[4]; after 9 weeks of TML therapy, also observed by a physiatrist and neurologist
  Hypertonicity of arms, hands and fingers: notable reduction
[4]; after 9 weeks of TML therapy, before: chronically cyanotic
  Cyanosis symptoms in the hands and feet: virtually no cyanosis
[4]; after 9 weeks of TML therapy, before: two or three days without bowel movement, enema needed
  Bowel movements: moving their bowels on their own one to three times a day
[4]; after approximately the first two weeks of TML, before: sleep interrupted 1 to 3 times per night
  Insomnia / sleeping through the night: The insomnia was gone
[4]; after the administration of TML
  Hyperammonemic condition (blue hands and feet): amelioration of the hyperammonemic condition
[4]; exogenous TML to the LINCL child
  Metabolic and outward, observable changes to their condition: yielded significant metabolic and outward, observable changes to their condition
[4]; neurologist's office visit Jan. 30, 2004
  Full body jerk (Myoclonus) elicited by touch: no longer elicited a full body jerk
[4]; neurologist's office visit Jan. 30, 2004, clonazepam continued
  Myoclonic seizures: markedly reduced in severity and in number
[5]
  Condition on continued TML: remained stable
L-carnitine biosynthesis [6]
  Increase of the production of L-carnitine: 100 fold
L-carnitine biosynthesis [7]
  Increase of the production of L-carnitine: 3 fold

## C[N+](C)(C)CCCC(=O)[O-] [g-butyrobetaine, 4-N-trimethylaminobutyrate, reference compound]
L-carnitine biosynthesis [6]
  Increase of the production of L-carnitine: 100 fold
L-carnitine biosynthesis [7]
  Increase of the production of L-carnitine: 3 fold
